Source: US20040110756A1, “New anthracene derivatives and their use as pharmaceutical preparations” (priority 2002, published 2004)
Values after ≈ are worked out from the molar mass of the structure shown. Like-named read-outs stand apart in the source and are kept apart here.

Experiments:
Type in all cases: cell-based
[1] = test system: human cervix carcinoma cell line KB/HeLa; assay: XTT proliferation assay, KB/HeLa; conditions: KB/HeLa cells, 45 hours incubation
Source text: (§1) The substance of Example 2 was investigated in a proliferation test on established tumor cell lines for its anti-proliferative activity. The test used determines the cellular dehydrogenase activity and enables the cell vitality and, indirectly, the cell count to be determined. The cell lines used are the human cervix carcinoma cell line KB/HeLa (ATCC CCL17), the ovarian adenocarcinoma cell line SKOV-3 (ATCC HTB77), the human glioblastoma cell line SF-268 (NCI 503138) and the lung carcinoma cell line NCI-H460 (NCI 503473). Moreover, for investigating the effect of the substance specifically on the cell cycle, an RKOp27 cell system was used (M. Schmidt et al. Oncogene 19(20):2423-9, 2000). […]
(§2) The adherent, growing tumor cell lines KB/HeLa, SKOV-3, SF-268, NCI-H460, ASPC1, A172, A431, A549, DU145, C6, MDAMB435, HT29, PC3, T47D, U118MG and U373MG were cultured under standard conditions in the gassing incubator at 37° C., 5% CO2 and 95% relative humidity. […] Subsequently, the cell plates were incubated for a further 3 hours in a gassing incubator and the optical density (OD490 nm) was determined in the photometer. The percentage inhibition, relative to the control, is determined by means of the OD490 nm and plotted semi-logarithmically in the form of a concentration vs. activity curve. […]

[2] = test system: ovarian adenocarcinoma cell line SKOV-3; assay: XTT proliferation assay, SKOV-3; conditions: Homo sapiens, SK-OV-3; SKOV-3 cells, 45 hours incubation
Source text: as §1, §2

[3] = test system: human glioblastoma cell line SF-268; assay: XTT proliferation assay, SF-268; conditions: SF-268 cells, 45 hours incubation
Source text: as §1, §2

[4] = test system: lung carcinoma cell line NCI-H460; assay: XTT proliferation assay, NCI-H460; conditions: Homo sapiens; NCI-H460 cells, 45 hours incubation
Source text: as §1, §2

[5] = test system: RKOp27 human colon carcinoma cells; assay: Cell cycle analysis by means of the RKOp27 model (XTT); conditions: for EC50: Homo sapiens, RKOp27, 45 h
Source text: The substance of Example 2 was investigated in a proliferation test on established tumor cell lines for its anti-proliferative activity. The test used determines the cellular dehydrogenase activity and enables the cell vitality and, indirectly, the cell count to be determined. The cell lines used are the human cervix carcinoma cell line KB/HeLa (ATCC CCL17), the ovarian adenocarcinoma cell line SKOV-3 (ATCC HTB77), the human glioblastoma cell line SF-268 (NCI 503138) and the lung carcinoma cell line NCI-H460 (NCI 503473). Moreover, for investigating the effect of the substance specifically on the cell cycle, an RKOp27 cell system was used (M. Schmidt et al. Oncogene 19(20):2423-9, 2000). The RKO is a human colon carcinoma line, in which the cell cycle inhibitor p27^kip1 was expressed by means of the Ecdyson Expression System and can be brought to a cell cycle arrest in G2. A substance of nonspecific activity inhibits the proliferation independently of whether the RKO cell is or is not arrested in G1 or G2. On the other hand, cell cycle specific substances, such as tubulin inhibitors, are cytotoxic only when the cells are not arrested and passed through the cell cycle. In Table 2, the cytotoxic or growth-inhibiting activity of the compound described is shown with and without expression of p27^kip1.
as §2, with “curve. The EC50 is calculated from the concentration-activity curve by means of a regression analysis, using the Graphpad Prism program” for “curve.”

[6] = test system: human pancreas adenocarcinoma cell line ASPC1; assay: XTT proliferation assay, ASPC1; conditions: ASPC1 cells, average of two independent experiments
Source text: (§3) For further characterization, substance 2 was investigated for its anti-proliferative effect using a panel of 12 human tumor cell lines. The cell lines used were the human glioma cell lines A172 (ATCC CRL-1620), U118 (ATCC HTB-15) and U373 (ATCC HTB-17), the rat glioma cell line C6 (ATCC CCL-107), the human lung carcinoma cell line A549, the human epidermoid carcinoma A431 (ATCC CRL-2592), the human prostate cancer cell lines DU145 (ATCC HTB-81) and PC3 (ATCC CRL-1435), the human colon adenocarcinoma cell line HT 29 (ATCC HTB-38), the human pancreas adenocarcinoma cell line ASPC1 (ATCC CRL-1682) and the human breast cancer cell lines T47D (ECACC 88062428) and MCAMB435 (NCI 914182). […]
as §2

[7] = test system: human glioma cell line A172; assay: XTT proliferation assay, A172; conditions: A 172, A172 cells, average of two independent experiments
Source text: as §3, §2

[8] = test system: human epidermoid carcinoma A431; assay: XTT proliferation assay, A431; conditions: A-431, A431 cells, average of two independent experiments
Source text: as §3, §2

[9] = test system: human lung carcinoma cell line A549; assay: XTT proliferation assay, A549; conditions: A549 cells, average of two independent experiments
Source text: as §3, §2

[10] = test system: human prostate cancer cell line DU145; assay: XTT proliferation assay, DU145; conditions: DU-145, DU145 cells, average of two independent experiments
Source text: as §3, §2

rat glioma cell line C6 = assay: XTT proliferation assay, C6; conditions: C6 rat glioma cells, average of two independent experiments
Source text: as §3, §2

[11] = test system: human breast cancer cell line MDA MB435; assay: XTT proliferation assay, MDA MB435; conditions: MDA-MB-435, MDA MB435 cells, average of two independent experiments
Source text: as §3, §2

[12] = test system: human colon adenocarcinoma cell line HT 29; assay: XTT proliferation assay, HT29; conditions: HT29 cells, average of two independent experiments
Source text: as §3, §2

[13] = test system: human prostate cancer cell line PC3; assay: XTT proliferation assay, PC3; conditions: PC-3, PC3 cells, average of two independent experiments
Source text: as §3, §2

[14] = test system: human breast cancer cell line T47D; assay: XTT proliferation assay, T47D; conditions: T47D cells, average of two independent experiments
Source text: as §3, §2

[15] = test system: human glioma cell line U118; assay: XTT proliferation assay, U118MG; conditions: U-118-MG, U118MG cells, average of two independent experiments
Source text: as §3, §2

[16] = test system: human glioma cell line U373; assay: XTT proliferation assay, U373MG; conditions: U373 MG, U373MG cells, average of two independent experiments
Source text: as §3, §2

Compound: COc1cc(OC)cc(N2CCN(C(=O)c3c4ccccc4cc4ccccc34)CC2)c1 [Example 2, Anthracene-9-yl-[4-(3,5-dimethoxy-phenyl)-piperazine-1-yl]-methanone]
- EC50 [1]: 0.048 µg/mL (≈ 0.113 µM)
- EC50 [2]: 0.047 µg/mL (≈ 0.11 µM)
- EC50 [3]: 0.043 µg/mL (≈ 0.101 µM)
- EC50 [4]: 0.054 µg/mL (≈ 0.127 µM)
- EC50 ([5]; read-out: XTT Proliferation Assay, EC50 RKOP27): 0.058 µg/mL (≈ 0.136 µM)
- EC50 ([5]; read-out: XTT Proliferation Assay, EC50 RKOP27 ind.): > 3.16 µg/mL
- cytotoxic activity in the induced state of p27kip1 ([5]; RKOp27 cells, p27kip1 induced): did not show any cytotoxic activity
- EC50 [6]: 0.11 µg/mL (≈ 0.258 µM)
- EC50 [7]: 0.046 µg/mL (≈ 0.108 µM)
- EC50 [8]: 0.044 µg/mL (≈ 0.103 µM)
- EC50 [9]: 0.066 µg/mL (≈ 0.155 µM)
- EC50 [10]: 0.045 µg/mL (≈ 0.106 µM)
- EC50 (rat glioma cell line C6): 0.17 µg/mL (≈ 0.399 µM)
- EC50 [11]: 0.054 µg/mL (≈ 0.127 µM)
- EC50 [12]: 0.061 µg/mL (≈ 0.143 µM)
- EC50 [13]: 0.049 µg/mL (≈ 0.115 µM)
- EC50 [14]: 0.022 µg/mL (≈ 0.0516 µM)
- EC50 [15]: 0.059 µg/mL (≈ 0.138 µM)
- EC50 [16]: 0.057 µg/mL (≈ 0.134 µM)
